Patent publication US8039430B2 (University of Wollongong, priority 2005, dated 2011)
Counter-ions that a name gives are not always drawn.

Columns and labels:
[1] = tested on: Staphylococcus aureus (ATCC 6538P); assay: Antibacterial assay (MIC), Staphylococcus aureus ATCC 6538P, Luria Broth, Example 1; assay type: cell-based; conditions: Staphylococcus aureus, ATCC6538P; Example 1 compounds; S. aureus ATCC 6538P; 24 hrs, 37° C.; range if at least two of three values fell within it; read-out: Sa (minimum inhibitory concentration)
Outline: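 Broth microdilution in Luria Broth, 2-fold series from 125 to 0.98 ug/ml in triplicate, with 1/1000-diluted overnight culture; up to 2.5% DMSO. Incubated 24 hrs at 37° C with slow rotation; MIC read as lowest concentration giving a clear well without bacterial pellet.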

[2] = tested on: Methicillin-Resistant Staphylococcus aureus (ATCC 43300); assay: MIC determination by micro-broth dilution (NCCLS), methicillin-resistant S. aureus; assay type: cell-based; conditions: ATCC43300, Example 1 compounds, Mueller Hinton II broth, 24 hours, 37° C.
Method: (§1) Antibacterial Assay Methods for Staphylococcus aureus Mu50 (ATCC 700699), Methicillin-Resistant Staphylococcus aureus (ATCC 43300), Multi-Drug-Resistant Staphylococcus epidermidis (ATCC 700562) Compounds
(§2) The compounds were stored at room temperature in the dark prior to use. Each compound was solubilized in DMSO to a final concentration of 40 mg/mL. The stock material was diluted to a concentration equivalent to two times the final in-well high test concentration (100 μg/mL for all experimental compounds) in Mueller Hinton II broth. […] Vancomycin and oxacillin were obtained from Sigma Aldrich Chemical Company and were used as positive and/or negative control compounds in the reported assays at high test concentrations of 100, 25 and 100 μg/mL respectively.
(§3) The bacterial strains employed in these assays were obtained from the American Type Culture Collection (ATCC). All of the bacterial strains were propagated as recommended by the ATCC. Each strain was stored as a frozen glycerol stock at −80° C. and a 10 μL loop of the frozen stocks was used to inoculate each culture for these assays.
(§4) The susceptibility of the above microorganisms to the test compounds was evaluated by determining the MIC of each compound using micro-broth dilution analysis according to the methods recommended by the NCCLS. All microbial strains were obtained from American Type Culture Collections (ATCC) and cultured according to the suppliers recommendations. Evaluation of the susceptibility of each organism against the test compounds included a positive control antibiotics Vancomycin and Oxacillin. For each organism, a standardized inoculum was prepared by direct suspension of freshly plated colonies in Mueller Hinton II broth to an optical density 625 nm (OD625) of 0.1 (equivalent to a 0.5 McFarland standard). The suspended inoculum was diluted to a concentration of approximately 1×10^6 colony forming units per milliliter (CFU/mL) and 100 μL placed into triplicate wells of a 96-well plate containing 100 μL of test compound serially diluted 2-fold in Mueller Hinton II broth. One hundred microliters of the inoculum was also added to triplicate wells containing 100 μL of two-fold serial dilutions of a positive control antibiotic and to wells containing 100 μL of media only. This dilution scheme yielded final concentrations for each microbial organism estimated to be 5×10^5 CFU/mL (verified by colony quantification on appropriate agar plates, data is not presented). Test compound concentrations ranged from a high-test of 1:2 (100 μg/mL)) to a low test of 1:2048 (0.1 μg/mL) using a two-fold dilution scheme. The plates were incubated for 24 hours at 37° C., and the microbial growth at each concentration of compound was determined by measuring the optical density at 625 nm on a Molecular Devices SpectraMax Plus-384 plate reader.
(§5) Microsoft Excel 2003 was used to analyze and graph the data, and the MIC (minimal inhibitory concentration) was determined from the resulting data.

[3] = tested on: Multi-Drug-Resistant Staphylococcus epidermidis (ATCC 700562); assay: MIC determination by micro-broth dilution (NCCLS), multi-drug-resistant S. epidermidis; assay type: cell-based; conditions: ATCC700562, Example 1 compounds, Mueller Hinton II broth, 24 hours, 37° C.
Method: as §1, §2, §3, §4, §5

[4] = tested on: #820 E. faecium van A ST17; assay: Antibacterial assay (MIC), VRE strain #820, Enterococossel Broth, Example 1; assay type: cell-based, Enterococcus faecium; conditions: Enterococcus faecium; Example 1 compounds; VRE #820 E. faecium van A; 24 hrs, 37° C.; read-out: 820 (minimum inhibitory concentration)
Outline: (§6)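 Broth microdilution MIC vs E. faecium VRE strains grown in Enterococossel broth, inoculum 1/1000 of overnight culture; compounds tested in triplicate at 125–0.98 ug/ml (2-fold), top-well DMSO 2.5%. Plates incubated 24 h at 37 °C; MIC read as clear well, no pellet and no black colouring of medium.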

[5] = tested on: #987 E. faecium van B ST39; assay: Antibacterial assay (MIC), VRE strain #987, Enterococossel Broth, Example 1; assay type: cell-based, Enterococcus faecium; conditions: Enterococcus faecium; Example 1 compounds; VRE #987 E. faecium van B; 24 hrs, 37° C.; read-out: 987 (minimum inhibitory concentration)
Outline: as §6

[6] = tested on: Staphylococcus aureus Mu50 (ATCC 700699); assay: MIC determination by micro-broth dilution (NCCLS), S. aureus Mu50; assay type: cell-based; conditions: ATCC700699, Example 1 compounds, Mueller Hinton II broth, 24 hours, 37° C.
Method: as §1, §2, §3, §4, §5

[7] = tested on: #449 E. faecium van B ST17; assay: Antibacterial assay (MIC), VRE strain #449, Enterococossel Broth, Example 1; assay type: cell-based, Enterococcus faecium; conditions: Enterococcus faecium; Example 1 compounds; VRE #449 E. faecium van B; 24 hrs, 37° C.; read-out: 449 (minimum inhibitory concentration)
Outline: (§7)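 Broth microdilution in Enterococossel Broth, triplicate twofold dilutions from 125 to 0.98 ug/ml, inoculated with 1/1000-diluted overnight E. faecium van B culture. Incubated 24 h at 37° C with slow rotation. MIC read as lowest concentration without pellet or black medium; first-row DMSO 2.5%.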

[8] = tested on: #243 E. faecium van B ST17; assay: Antibacterial assay (MIC), VRE strain #243, Enterococossel Broth, Example 1; assay type: cell-based, Enterococcus faecium; conditions: Enterococcus faecium; Example 1 compounds; VRE #243 E. faecium van B; 24 hrs, 37° C.; read-out: 243 (minimum inhibitory concentration)
Outline: as §7

[9] = target: T1, HIV integrase enzyme (Human immunodeficiency virus type 1 group M subtype B, UniProt P04585); assay: HIV integrase initial screening (3′ processing function); assay type: biochemical; conditions: Example 2 compounds; Conc. 50 μg/mL; 3′ processing function of the enzyme
T1 construct: against the HIV integrase enzyme
Excerpt: Compounds synthesized in Example 2 were additionally included in a random database screening strategy against the HIV integrase enzyme.
The compounds that were chosen to be tested against HIV integrase were 78, 81, 88 and 89 and the results are represented in Table 4.
The results for the screening of the four target molecules 165-168 against the HIV integrase enzyme yielded some encouraging results which supported the proposed mechanism of binding in the active binding trench of the HIV integrase enzyme. The testing procedure for the four target compounds differed from the original screening protocols employed. The original screening measured inhibition against the 3′ processing function of the enzyme at the fixed concentration of 50 μg/mL, whereas the four target molecules were tested in an assay adapted from a literature procedure,^107 which measures inhibition against the 3′ strand transfer function of the enzyme. This allows a result to be obtained as an inhibition constant (IC50) concentration, which is the standard measurement of inhibition within the literature. Along with the four target molecules, 88 was also re-tested in the 3′ strand transfer assay to determine the IC50 for direct comparison with the literature.

[10] = tested on: MRSA isolates; conditions: 43 MRSA isolates from adults with community respiratory infections; cited from earlier work

| Structure (SMILES) | MIC [1] | MIC [2] | MIC [3] | MIC [4] | MIC [5] | MIC [6] | MIC [7] | MIC [8] | inhibition at 50 µg/mL [9] | susceptibility rates [10] |
| --- | --- | --- | --- | --- | --- | --- | --- | --- | --- | --- |
| CC(C)CCOc1ccc2ccccc2c1-c1c(OCC(=O)N[C@H](CCCCN)C(=O)N[C@H](CCCNC(=N)N)C(=O)N[C@@H](CC(C)C)C(=O)OCc2ccccc2)ccc2ccccc12.Cl.Cl (atropisomer, axis not shown) [Compound 1] | 0.99 to 15.6 µg/mL | 0.99 to 15.6 µg/mL | 0.99 to 15.6 µg/mL | 0.99 to 15.6 µg/mL | 15.7 to 62.5 µg/mL | 0.99 to 15.6 µg/mL | 15.7 to 62.5 µg/mL | 15.7 to 62.5 µg/mL |  |  |
| CC(C)CCOc1ccc2ccccc2c1-c1c(OCC(=O)N[C@H](CCCCN)C(=O)N[C@H](CCCNC(=N)N)C(=O)N[C@H](COCc2ccccc2)CC(C)C)ccc2ccccc12.Cl.Cl (atropisomer, axis not shown) [Compound 15] | 0.99 to 15.6 µg/mL | 0.99 to 15.6 µg/mL | 0.99 to 15.6 µg/mL | 15.7 to 62.5 µg/mL | 15.7 to 62.5 µg/mL | 0.99 to 15.6 µg/mL | 15.7 to 62.5 µg/mL | 15.7 to 62.5 µg/mL |  |  |
| CC(C)CCOc1ccc2ccccc2c1-c1c(OCC(=O)N[C@H](CCCCN)C(=O)N[C@H](CCCNC(=N)N)C(=O)N[C@@H](CC(C)C)c2ncc(-c3ccccc3)o2)ccc2ccccc12.Cl.Cl (atropisomer, axis not shown) [Compound 16] | 0.99 to 15.6 µg/mL | 0.99 to 15.6 µg/mL | 0.99 to 15.6 µg/mL | > 62.6 µg/mL | > 62.6 µg/mL | 0.99 to 15.6 µg/mL | > 62.6 µg/mL | > 62.6 µg/mL |  |  |
| CC(C)CCOc1ccc2ccccc2c1-c1c(OCC(=O)N[C@H](CCCCN)C(=O)N[C@H](CCCNC(=N)N)C(=O)N[C@@H](CC(C)C)c2nc(S(=O)(=O)O)c(-c3ccccc3)o2)ccc2ccccc12.Cl.Cl (atropisomer, axis not shown) [Compound 17] | < 0.98 µg/mL | 0.99 to 15.6 µg/mL | 0.99 to 15.6 µg/mL | 15.7 to 62.5 µg/mL | 15.7 to 62.5 µg/mL | 0.99 to 15.6 µg/mL | 15.7 to 62.5 µg/mL | 15.7 to 62.5 µg/mL |  |  |
| CC(C)CCOc1ccc2ccccc2c1-c1c(OCC(=O)N[C@H](CCCCN)C(=O)N[C@H](CCCNC(=N)N)C(=O)NC2(C(=O)OCc3ccccc3)CCCCC2)ccc2ccccc12.Cl.Cl (atropisomer, axis not shown) [Compound 21] | 0.99 to 15.6 µg/mL | 0.99 to 15.6 µg/mL | 0.99 to 15.6 µg/mL | 15.7 to 62.5 µg/mL | 15.7 to 62.5 µg/mL | 0.99 to 15.6 µg/mL | 15.7 to 62.5 µg/mL | 15.7 to 62.5 µg/mL |  |  |
| CC(C)CCOc1ccc2ccccc2c1-c1c(OCCNC(=O)[C@@H](CCCCN)NC(=O)[C@@H](CCCNC(=N)N)NC(=O)[C@@H](CC(C)C)NC(=O)Cc2ccccc2)ccc2ccccc12.Cl.Cl (atropisomer, axis not shown) [Compound 30] | 0.99 to 15.6 µg/mL | 0.99 to 15.6 µg/mL | 0.99 to 15.6 µg/mL | > 62.6 µg/mL | > 62.6 µg/mL | 0.99 to 15.6 µg/mL | > 62.6 µg/mL | > 62.6 µg/mL |  |  |
| Cl.Cl.N=C(N)NCCC[C@@H](NC(=O)CCCOc1ccc2ccccc2c1-c1c(OCCCC(=O)N[C@H](CCCNC(=N)N)C(=O)OCc2ccccc2)ccc2ccccc12)C(=O)OCc1ccccc1 (atropisomer, axis not shown) [Compound 31] | 0.99 to 15.6 µg/mL | 0.99 to 15.6 µg/mL | 0.99 to 15.6 µg/mL | 15.7 to 62.5 µg/mL | 15.7 to 62.5 µg/mL | 15.7 to 62.5 µg/mL | 15.7 to 62.5 µg/mL | 15.7 to 62.5 µg/mL |  |  |
| C=CCOc1ccc(C[C@H](NC(C)=O)C(=O)N[C@@H](CCCCN)C(=O)N[C@@H](CC=C)C(=O)OC)cc1 [Compound 78, hydrochloride] |  |  |  |  |  |  |  |  | 15% |  |
| C=CCOc1ccc(C[C@H](NC(C)=O)C(=O)N[C@@H](CCCNC(=N)N)C(=O)N[C@@H](CC=C)C(=O)OC)cc1 [Compound 81, Methyl(2S,5S,8S)-2-allyl-8-(4-allyloxybenzyl)-3,6,9-triaza-5-(3-[guanidino]propyl)-4,7,10-oxoundecanoate hydrochloride] |  |  |  |  |  |  |  |  | 70% |  |
| C=CCOc1ccc(C[C@H](NC(C)=O)C(=O)N[C@@H](CCCCNC(=N)N)C(=O)N[C@@H](CC=C)C(=O)OC)cc1 [Compound 88, Methyl(2S,5S,8S)-2-allyl-9-(4-allyloxyphenyl)-5-(4-[guanidino]butyl)-3,6,9-triaza-4,7,10-trioxoundecanoate hydrochloride] |  |  |  |  |  |  |  |  | 95% |  |
| COC(=O)[C@@H]1CC=CCOc2ccc(cc2)C[C@H](NC(C)=O)C(=O)N[C@@H](CCCCNC(=N)N)C(=O)N1 [Compound 89, (7S,10S,13S,4E/Z)-13-Acetamido-10-(4-[guanidino]butyl)-8,11-diaza-7-methoxycarbonyl-2-oxa-9,12-dioxo-1(1,4)phenylenacyclotetradecaphane-4-ene hydrochloride] |  |  |  |  |  |  |  |  | 4% |  |
| CC[C@H]1OC(=O)[C@H](C)[C@@H](O[C@H]2C[C@@](C)(OC)[C@@H](O)[C@H](C)O2)[C@H](C)[C@@H](O[C@@H]2O[C@H](C)C[C@H](N(C)C)[C@H]2O)[C@](C)(O)C[C@@H](C)C(=O)[C@H](C)[C@@H](O)[C@]1(C)O [erythromycin] |  |  |  |  |  |  |  |  |  | 12% |
